Measured values taken from PubChem BioAssay AID330 (DTP/NCI, 2004).
Values joined by “and” are separate entries in the source; they are usually repeats but may differ in a detail not shown here. Identical values can stand only once. Toxic doses and inconclusive results are not listed.

Tested on: P388 leukemia ip, CD2F1 mice, survival T/C
Experiment: NCI In Vivo Anticancer Drug Screen. Data for tumor model P388 Leukemia (intraperitoneal) in CD2F1 (CDF1) mice
Conditions: endpoint: median survival time, higher = longer survival
Method in brief: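 Mice carrying the transplanted tumor received test compound or vehicle. Survival was recorded in each group, and the value is the treated-group measurement divided by that of the vehicle-treated control group.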

[1] = dose: 50.0 mg/kg/injection, schedule: Q01DX009 (ip), vehicle: Klucel (hydroxypropylcellulose) (HPC)
[2] = dose: 100.0 mg/kg/injection, schedule: Q01DX009 (ip), vehicle: Klucel (hydroxypropylcellulose) (HPC)
[3] = dose: 200.0 mg/kg/injection, schedule: Q01DX009 (ip), vehicle: Klucel (hydroxypropylcellulose) (HPC)
[4] = dose: 60.0 mg/kg/injection, schedule: Q01DX005 (ip), vehicle: saline with Tween-80
[5] = dose: 120.0 mg/kg/injection, schedule: Q01DX005 (ip), vehicle: saline with Tween-80
[6] = dose: 240.0 mg/kg/injection, schedule: Q01DX005 (ip), vehicle: saline with Tween-80
[7] = dose: 100.0 mg/kg/injection, schedule: Q04DX003 (ip), vehicle: saline
[8] = dose: 60.0 mg/kg/injection, schedule: Q01DX005 (ip), vehicle: Klucel (hydroxypropylcellulose) (HPC)
[9] = dose: 120.0 mg/kg/injection, schedule: Q01DX005 (ip), vehicle: Klucel (hydroxypropylcellulose) (HPC)
[10] = dose: 240.0 mg/kg/injection, schedule: Q01DX005 (ip), vehicle: Klucel (hydroxypropylcellulose) (HPC)
[11] = dose: 25.0 mg/kg/injection, schedule: Q01DX009 (ip), vehicle: saline with Tween-80
[12] = dose: 100.0 mg/kg/injection, schedule: Q01DX009 (ip), vehicle: saline with Tween-80
[13] = dose: 200.0 mg/kg/injection, schedule: Q01DX009 (ip), vehicle: saline with Tween-80
[14] = dose: 50.0 mg/kg/injection, schedule: Q01DX009 (ip), vehicle: saline with Tween-80
[15] = dose: 50.0 mg/kg/injection, schedule: Q01DX009 (ip), vehicle: saline
[16] = dose: 100.0 mg/kg/injection, schedule: Q01DX009 (ip), vehicle: saline
[17] = dose: 200.0 mg/kg/injection, schedule: Q01DX009 (ip), vehicle: saline

## CC(=O)N=c1sccn1CC(O)c1ccccc1 (stereo not drawn)
[1]
  T/C: 105 % of control
[2]
  T/C: 99 % of control
dose: 200.0 mg/kg/injection, schedule: Q01DX001 (ip), vehicle: Klucel (hydroxypropylcellulose) (HPC)
  T/C: 118 % of control
[3]
  T/C: 108 % of control
dose: 400.0 mg/kg/injection, schedule: Q01DX001 (ip), vehicle: Klucel (hydroxypropylcellulose) (HPC)
  T/C: 100 % of control

## Cn1c(=O)c2nc(-c3ccc(Cl)c(Cl)c3)cnc2n(C)c1=O
dose: 100.0 mg/kg/injection, schedule: Q04DX002 (ip), vehicle: Klucel (hydroxypropylcellulose) (HPC)
  T/C: 96 % of control
dose: 200.0 mg/kg/injection, schedule: Q04DX002 (ip), vehicle: Klucel (hydroxypropylcellulose) (HPC)
  T/C: 95 % of control
dose: 400.0 mg/kg/injection, schedule: Q04DX002 (ip), vehicle: Klucel (hydroxypropylcellulose) (HPC)
  T/C: 98 % of control

## COc1ccccc1C(=O)Nc1c(C)cccc1Cl
[4]
  T/C: 100 % of control
[5]
  T/C: 103 % of control
[6]
  T/C: 94 % of control

## Cc1cc(N2C(=O)CCSC2=S)ccc1Br
dose: 50.0 mg/kg/injection, schedule: Q01DX009 (ip), vehicle: suspension in saline
  T/C: 87 % of control
dose: 100.0 mg/kg/injection, schedule: Q01DX009 (ip), vehicle: suspension in saline
  T/C: 104 % of control
dose: 200.0 mg/kg/injection, schedule: Q01DX009 (ip), vehicle: suspension in saline
  T/C: 116 % of control

## CN1CCC(c2ccccc2)C(O)C1 (stereo not drawn)
[4]
  T/C: 106 % of control
[5]
  T/C: 105 % of control
[6]
  T/C: 103 % of control

## COC(=O)C(C(=O)OC)=C1C(=O)OCC1(C)C
[7]
  T/C: 101 % of control
dose: 200.0 mg/kg/injection, schedule: Q04DX003 (ip), vehicle: saline
  T/C: 100 % of control
dose: 400.0 mg/kg/injection, schedule: Q04DX003 (ip), vehicle: saline
  T/C: 100 % of control

## CCCSCCCC(=O)O
[1]
  T/C: 100 % of control
[2]
  T/C: 100 % of control
[3]
  T/C: 104 % of control

## CN(C)c1ccc(C2c3cc4c(cc3OC3(N5CCCC5)CCCCC23)OCO4)cc1 (stereo not drawn)
[8]
  T/C: 95 % of control
[9]
  T/C: 97 % of control
[10]
  T/C: 89 % of control

## CN(C)CCCSc1nnc(-c2ccc3c(c2)OCO3)o1
dose: 50.0 mg/kg/injection, schedule: Q04DX002 (ip), vehicle: water
  T/C: 106 % of control
dose: 100.0 mg/kg/injection, schedule: Q04DX002 (ip), vehicle: water
  T/C: 100 % of control
dose: 200.0 mg/kg/injection, schedule: Q04DX002 (ip), vehicle: water
  T/C: 101 % of control

## O=c1c2sc3ccccc3c2ncn1/N=C/c1cccc(Cl)c1
dose: 50.0 mg/kg/injection, schedule: Q01DX005 (ip), vehicle: Klucel (hydroxypropylcellulose) (HPC)
  T/C: 96 % of control
dose: 100.0 mg/kg/injection, schedule: Q01DX005 (ip), vehicle: Klucel (hydroxypropylcellulose) (HPC)
  T/C: 97 % of control
dose: 200.0 mg/kg/injection, schedule: Q01DX005 (ip), vehicle: Klucel (hydroxypropylcellulose) (HPC)
  T/C: 88 % of control

## O=C1[C@H]2CCC[C@H]2[C@H]2CCC[C@@H]12
[11]
  T/C: 112 % of control
[12]
  T/C: 119 % of control
[13]
  T/C: 105 % of control

## C=C1C(=O)OC2C/C(C)=C/CC/C(C)=C/CCC3(COC(C)=O)OC3CC12 (stereo not drawn)
dose: 1.0 mg/kg/injection, schedule: Q01DX008 (ip), vehicle: Klucel (hydroxypropylcellulose) (HPC)
  T/C: 99 % of control
dose: 2.0 mg/kg/injection, schedule: Q01DX008 (ip), vehicle: Klucel (hydroxypropylcellulose) (HPC)
  T/C: 100 % of control
dose: 4.0 mg/kg/injection, schedule: Q01DX008 (ip), vehicle: Klucel (hydroxypropylcellulose) (HPC)
  T/C: 97 % of control
dose: 8.0 mg/kg/injection, schedule: Q01DX008 (ip), vehicle: Klucel (hydroxypropylcellulose) (HPC)
  T/C: 103 % of control
dose: 16.0 mg/kg/injection, schedule: Q01DX008 (ip), vehicle: Klucel (hydroxypropylcellulose) (HPC)
  T/C: 107 % of control

## BrCCC[P+](c1ccccc1)(c1ccccc1)c1ccccc1
dose: 8.25 mg/kg/injection, schedule: Q01DX009 (ip), vehicle: saline with Tween-80
  T/C: 116 % of control
dose: 12.5 mg/kg/injection, schedule: Q01DX009 (ip), vehicle: saline with Tween-80
  T/C: 116 % of control

## C1C[S][Hg][S]CCO1
dose: 6.25 mg/kg/injection, schedule: Q01DX009 (ip), vehicle: suspension in saline
  T/C: 105 % of control
dose: 12.5 mg/kg/injection, schedule: Q01DX009 (ip), vehicle: suspension in saline
  T/C: 102 % of control

## CC(C)(C)c1cc(C(c2ccccc2)(c2ccccc2)c2ccccc2)cc2c1OP(F)(c1ccccc1)(c1ccccc1)N2
[14]
  T/C: 91 % of control
[12]
  T/C: 95 % of control
[13]
  T/C: 91 % of control

## COP(=O)(OC)/C(=N\NS(=O)(=O)c1ccc(C)cc1)c1ccccc1
[14]
  T/C: 100 % of control
[12]
  T/C: 103 % of control
[13]
  T/C: 117 % of control
dose: 400.0 mg/kg/injection, schedule: Q01DX009 (ip), vehicle: saline with Tween-80
  T/C: 119 % of control

## CCC1(C)NN=C2C(=CC=C3NNC(C)(CC)N32)n2cccc21 (stereo not drawn)
dose: 50.0 mg/kg/injection, schedule: Q01DX005 (ip), vehicle: saline with Tween-80
  T/C: 102 % of control
dose: 100.0 mg/kg/injection, schedule: Q01DX005 (ip), vehicle: saline with Tween-80
  T/C: 110 % of control
dose: 200.0 mg/kg/injection, schedule: Q01DX005 (ip), vehicle: saline with Tween-80
  T/C: 119 % of control

## Cc1cccn2c(N=O)cnc12
dose: 100.0 mg/kg/injection, schedule: Q04DX003 (ip), vehicle: saline with Tween-80
  T/C: 98 % of control

## O=NNc1ccc2ccccc2n1
dose: 3.12 mg/kg/injection, schedule: Q01DX009 (ip), vehicle: water
  T/C: 122 % of control
dose: 25.0 mg/kg/injection, schedule: Q01DX009 (ip), vehicle: water
  T/C: 91 % of control and 94 % of control

## O=C/C(=C\O)NC(=O)c1ccccc1C(=O)O
[8]
  T/C: 99 % of control
[9]
  T/C: 99 % of control
[10]
  T/C: 92 % of control

## CC(=O)N(O)C1CCCCC1
[14]
  T/C: 101 % of control
[15]
  T/C: 112 % of control
[12]
  T/C: 101 % of control
[16]
  T/C: 97 % of control
[13]
  T/C: 103 % of control
[17]
  T/C: 100 % of control

## CC1(c2ccc(Cl)cc2)OC(=O)C(=Cc2ccc([N+](=O)[O-])s2)C(=O)O1 (stereo not drawn)
[12]
  T/C: 122 % of control

## COC(=O)/C(=C/Cl)NC(C)=O
dose: 12.5 mg/kg/injection, schedule: Q01DX001 (ip), vehicle: suspension in saline
  T/C: 91 % of control
dose: 25.0 mg/kg/injection, schedule: Q01DX001 (ip), vehicle: suspension in saline
  T/C: 99 % of control
dose: 50.0 mg/kg/injection, schedule: Q01DX001 (ip), vehicle: suspension in saline
  T/C: 92 % of control
dose: 200.0 mg/kg/injection, schedule: Q01DX001 (ip), vehicle: suspension in saline
  T/C: 98 % of control

## CN(C)CCC(=O)c1ccc(O)cc1
[15]
  T/C: 98 % of control
[16]
  T/C: 105 % of control
[17]
  T/C: 106 % of control

## CN1C(=O)C(n2[nH]c(=O)n(-c3ccc(Cl)cc3)c2=O)C(=O)N(C)C1=O
[1]
  T/C: 100 % of control
[2]
  T/C: 100 % of control
[3]
  T/C: 97 % of control

## O=NN(CCF)C(=O)Oc1cc(Cl)c(Cl)cc1Cl
dose: 12.0 mg/kg/injection, schedule: Q01DX005 (ip), vehicle: saline with Tween-80
  T/C: 170 % of control
dose: 25.0 mg/kg/injection, schedule: Q01DX005 (ip), vehicle: saline with Tween-80
  T/C: 202 % of control

## O=C1CC2(C(=O)O1)C1C(=O)OC(=O)C1C1C=CC=NN12 (stereo not drawn)
[11]
  T/C: 90 % of control
[14]
  T/C: 93 % of control
[12]
  T/C: 93 % of control

## CN(C)CCCn1c2ccccc2c2cnccc21
dose: 25.0 mg/kg/injection, schedule: Q01DX009 (ip), vehicle: saline
  T/C: 100 % of control
dose: 25.0 mg/kg/injection, schedule: Q04DX003 (ip), vehicle: saline
  T/C: 100 % of control
[15]
  T/C: 100 % of control
dose: 50.0 mg/kg/injection, schedule: Q04DX003 (ip), vehicle: saline
  T/C: 95 % of control
[16]
  T/C: 109 % of control
[7]
  T/C: 95 % of control

## COC(=O)c1nc2nnc(NC(=O)Nc3ccc(Cl)cc3)n2c(-c2ccc(Cl)cc2)c1C
[4]
  T/C: 99 % of control
[5]
  T/C: 99 % of control
[6]
  T/C: 100 % of control

## CC(C)CNC(=O)c1ccc(OCC(O)CNC(C)(C)C)c(Cl)c1 (stereo not drawn)
dose: 100.0 mg/kg/injection, schedule: Q04DX003 (ip), vehicle: Klucel (hydroxypropylcellulose) (HPC)
  T/C: 107 % of control
dose: 200.0 mg/kg/injection, schedule: Q04DX003 (ip), vehicle: Klucel (hydroxypropylcellulose) (HPC)
  T/C: 102 % of control
